The source of these data is patent US12622917B2, “High-activity Wnt pathway inhibitor compound” (ADLAI NORTYE BIOPHARMA CO., LTD., priority 2020, dated 2026).

For experiment [1], the system named is RKO. The experiment in a line: Proliferation inhibition, non-Wnt mutant control cell line RKO. The format is cell-based. The note with it: Homo sapiens, Wnt-independent control cell line, 96 hours, read-out: Antiproliferative IC50 RKO. An outline of the steps: (§1)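 1000 cells/well, 37° C/5% CO2, 20-24 h attach; 3-fold serial dilution, max final 20 uM; 96 h exposure. Promega viability readout, full wavelength mode. DMSO wells = positive ctrl, no-cell wells = negative ctrl; IC50 reported.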

Experiment [2] concerns Colo205-LUC-TCF/LEF M1 reporter cell line (Wnt pathway). Nature of the experiment: Colo205-LUC-TCF/LEF M1 reporter gene (luciferase) inhibition. The format is cell-based. The note with it: 4 hours incubation, luciferase readout. An outline of the steps:
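Luminescent readout of TCF/LEF-regulated luciferase after a 4 h, 37° C compound exposure in a stable Colo205 reporter clone (10,000 cells/well). Serial 3-fold dilutions started at 20 uM; IC50 derived using DMSO-treated cells and no-cell wells as controls.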

Experiment [3] has as its system Hela. The experiment in a line: Proliferation inhibition, non-Wnt mutant control cell line Hela. Format: cell-based. The note with it: Homo sapiens, Wnt-independent control cell line, 96 hours, read-out: Antiproliferative IC50 Hela. An excerpt:
The cell lines used in the experiment are Colo205 and DU4475 cell lines whose Wnt pathway is continuously activated and whose proliferation is Wnt pathway-dependent; while the BELA and RKO cell lines, whose Wnt pathway is not activated under normal circumstances and the proliferation is independent of Wnt pathway, as control cell lines. It is Judged that the inhibitory effect of the compound of the present invention on Wnt-dependent proliferation is not caused by other non-specific toxicity.
Treat the Colo205, Du4475, HELA and RKO cell lines cultured in their respective mediums in the logarithmic growth phase, collect the cells and prepare a uniform cell suspension of known concentration, and then add it to the 96-well cell culture plate Cell suspension, so that each well contains 1000 cells. Put it into a 5% CO2 incubator and incubate at 37° C. for 20-24 h. On the second day, the fully dissolved, 3-fold serially diluted compound was added to each cell culture well, so that the final maximum concentration in the cell culture well was 20 uM, and the culture was continued for 96 hours. In this test, Promega's cell viability detection test is used for detection. The more the cells proliferate, the stronger the final signal intensity will be. The detection instrument is SpectraMax, full wavelength mode. The wells only added with DMSO were used as positive control wells, and the wells that were not inoculated with cells were used as negative control wells. […] The IC50 value of cell proliferation inhibition was used to evaluate the inhibitory effect of the compound on the Wnt pathway and the toxic effect on normal cells (Table 2).

In experiment [4] the test system is Colo205. Nature of the experiment: Proliferation inhibition, Wnt mutant cell line Colo205. Format: cell-based. The conditions noted are these: Homo sapiens, COLO 205; Colo205, Wnt pathway-dependent, 96 hours; read-out: Antiproliferative IC50 Colo205. An outline of the steps: as §1
Experiment [5] relates to HepG2. The experiment in a line: Proliferation inhibition, HepG2 cell line. Format: cell-based. The conditions noted are these: Homo sapiens; HepG2 cells, 96 hours culture, cell viability detection; read-out: Antiproliferative IC50 HepG2. An excerpt: (§2) The cell lines used in the test are NCI-H929 and HepG2 cell lines whose Wnt pathway is continuously activated and whose proliferation is Wnt pathway-dependent; the inhibitory effect of the compound of the present invention on Wnt-dependent proliferation is judged.
(§3) Treat the NCI-H929 and HepG2 cell lines cultured in their respective mediums in the logarithmic growth phase, collect the cells and prepare a uniform cell suspension of known concentration, and then add the cell suspension to the 96-well cell culture plate solution so that each well contains 4000 cells. Put it into a […] incubator and incubate at 37° C. for 20-24 h. On the second day, the fully dissolved, 3-fold serially diluted compound was added to each cell culture well, so that the final maximum concentration in the cell culture well was 20 uM, and the culture was continued for 96 hours. In this test, Promega's cell viability detection test is used for detection. The more the cells proliferate, the stronger the final signal intensity will be. The detection instrument is SpectraMax, full wavelength mode. The wells only added with DMSO were used as positive control wells, and the wells that were not inoculated with cells were used as negative control wells. […] The IC50 value of cell proliferation inhibition was used to evaluate the inhibitory effect of the compound on the Wnt pathway and the toxic effect on normal cells (Table 3).

Experiment [6] has as its system DU4475. The experiment in a line: Proliferation inhibition, Wnt mutant cell line DU4475. The note with it: Homo sapiens, DU-4475; DU4475, Wnt pathway-dependent, 96 hours; read-out: Antiproliferative IC50 DU4475. Format: cell-based. An outline of the steps:
as §1

Experiment [7] has as its system NCI-H929. The experiment in a line: Proliferation inhibition, NCI-H929 cell line. Format: cell-based, human. The note with it: Homo sapiens; NCI-H929 cells, 96 hours culture, cell viability detection; read-out: Antiproliferative IC50 NCI-H929.
Text: as §2, §3

The structures appear in SMILES notation. A value given as a limit tells only on which side of the number the result lay.

As for `COC[C@H]1[C@@H](C)n2ccc3nc(NCc4cnn(Cc5ccc(C(F)(F)F)nc5)c4)nc(c32)N1C` [88 (W140)], the values for the IC50 in experiment [1], in experiment [2] and in experiment [3] were over 10 µM, 0.022 µM and over 10 µM, respectively.
On to `COC[C@H]1Cn2ccc3nc(NCc4ccc(C(F)(F)F)nc4)nc(c32)N1C` [86 (W135)], for which the IC50 in experiment [1] is over 10 µM; in experiment [2], 0.038 µM; in experiment [3] it was over 10 µM; in experiment [4], 0.079 µM.
For the compound `[2H]C([2H])([2H])N1c2nc(NCc3ccc(Oc4cnc(C(F)(F)F)nc4)nc3)nc3c2N(CCC3)C(=O)[C@@H]1COC` [178 (W333)], the IC50 in experiment [5] was 0.023 µM; in experiment [1] it was over 10 µM; in experiment [2] it was 0.039 µM; in experiment [4] it was 0.0192 µM; in experiment [6], 0.0137 µM; in experiment [7], 0.06 µM.
For `[2H]C([2H])([2H])N1c2nc(NCc3ccc(Oc4cnc(C(F)(F)F)nc4)nc3)nc3c2N(CCC3)C(=O)[C@@H]1CC` [162 (W270)], the IC50 in experiment [5] is 0.016 µM; in experiment [1] it was over 10 µM; in experiment [2], 0.011 µM; in experiment [4], 0.0049 µM; in experiment [6], under 0.0005 µM; in experiment [7] it was 0.022 µM.
For `CCN1c2nc(NCc3ccc(Oc4cnc(C(F)(F)F)nc4)nc3)nc3c2N(CCC3)C(=O)[C@@H]1C1CC1` [166 (W287)], the IC50 in experiment [5] stood at 0.021 µM; in experiment [1] it was 4.82 µM; in experiment [2], 0.023 µM; in experiment [4] it was 0.016 µM; in experiment [6], 0.0048 µM; in experiment [7] it was 0.031 µM.
`CN1c2nc(NCc3ccc(Oc4ccc(C(F)(F)F)nc4)nc3)nc3c2N(CCC3)C(=O)[C@@H]1CC(F)(F)F` [190 (W317)]: the IC50 was 0.0021 µM in experiment [5]; over 10 µM in experiment [1]; 0.011 µM in experiment [2]; 0.0079 µM in experiment [4]; under 0.0005 µM in experiment [6]; 0.0064 µM in experiment [7].
`CN1c2nc(NCc3ccc(Oc4cnc(C(F)(F)F)nc4)nc3)nc3c2N(CCC3)C(=O)[C@@H]1CF` [150 (W301)]: the IC50 in experiment [5] is 0.019 µM; in experiment [1], over 10 µM; in experiment [2], 0.025 µM; in experiment [4] it was 0.024 µM; in experiment [6], 0.012 µM; in experiment [7], 0.062 µM.
With `CCN1c2nc(NCc3ccc(Oc4ccc(C(F)(F)F)nc4)nc3)nc3c2N(CCC3)C(=O)[C@@H]1C(C)C` [118 (W279), (S)-4-ethyl-5-isopropyl-2-(((6-((6-(trifluoromethyl)pyridin-3-yl)oxo)pyridin-3-yl)methyl)amino)-4,5,9,10-tetrahydro-6H,8H-pyrido[3,2,1-de]pteridin-6-one], the IC50 in experiment [5] was 0.016 µM; in experiment [1], over 10 µM; in experiment [2] it was 0.005 µM; in experiment [4], 0.0085 µM; in experiment [6], 0.0065 µM; in experiment [7] it was 0.083 µM.
For `CN1c2nc(NCc3ccc(Oc4cnc(C(F)(F)F)nc4)nc3)nc3c2N(CCC3)C(=O)[C@@H]1CC(F)(F)F` [199 (W319)], the IC50 in experiment [5] was 0.002 µM; in experiment [1], over 10 µM; in experiment [2], 0.009 µM; in experiment [4] it was 0.0069 µM; in experiment [6] it was under 0.0005 µM; in experiment [7], 0.028 µM.
Take `C[C@@H](F)[C@H]1C(=O)N2CCCc3nc(NCc4ccc(Oc5ccc(C(F)(F)F)nc5)nc4)nc(c32)N1C` [149 (W285)]: the IC50 in experiment [5] is 0.011 µM; in experiment [1], over 10 µM; in experiment [2] it was 0.016 µM; in experiment [4], 0.015 µM; in experiment [6], 0.0029 µM; in experiment [7], 0.041 µM.
`CN1c2nc(NCc3ccc(Oc4ccc(C(F)(F)F)nc4)nc3)nc3c2N(CCC3)C(=O)C1(C)C` [176 (W296)]: the IC50 in experiment [5] is 0.027 µM; in experiment [1] it was over 10 µM; in experiment [2], 0.02 µM; in experiment [4], 0.0056 µM; in experiment [6], 0.0038 µM; in experiment [7], 0.04 µM.
With `CN1c2nc(NCc3ccc(Oc4cnc(C(F)(F)F)nc4)nc3)nc3c2N(CCC3)C(=O)[C@@H]1c1ccccc1` [172 (W305)], the IC50 is 0.026 µM in experiment [5]; over 10 µM in experiment [1]; 0.02 µM in experiment [2]; 0.0174 µM in experiment [4]; 0.0058 µM in experiment [6]; 0.089 µM in experiment [7].
In the case of `[2H]C([2H])([2H])N1c2nc(NCc3ccc(Oc4cnc(C(F)(F)F)nc4)nc3)nc3c2N(CCC3)C(=O)[C@@H]1C1CC1` [165 (W286)], the IC50 is 0.011 µM in experiment [5]; over 10 µM in experiment [1]; 0.014 µM in experiment [2]; 0.012 µM in experiment [4]; 0.0006 µM in experiment [6]; 0.031 µM in experiment [7].
Consider `CCN1c2nc(NCc3ccc(Oc4cc(C(F)(F)F)nn4C)nc3)nc3c2N(CCC3)C(=O)[C@@H]1C` [153 (W293)], for which the IC50 is 0.019 µM in experiment [5]; over 10 µM in experiment [1]; 0.015 µM in experiment [2]; 0.021 µM in experiment [4]; 0.0039 µM in experiment [6]; 0.037 µM in experiment [7].
`C[C@H]1C(=O)N2CCCc3nc(NCc4ccc(Oc5cc(C(F)(F)F)nn5C)nc4)nc(c32)N1C` [128 (W263), (S)-4,5-dimethyl-2-(((6-((1-methyl-3-(trifluoromethyl)-1H-pyrazol-5-yl)oxo)pyridine-3-yl)methyl)amino)-4,5,9,10-tetrahydro-6H,8H-pyrido[3,2,1-de]pteridin-6-one]: the IC50 is 0.027 µM in experiment [5]; over 10 µM in experiment [1]; 0.019 µM in experiment [2]; 0.0186 µM in experiment [4]; 0.0041 µM in experiment [6]; 0.078 µM in experiment [7].
Regarding `C[C@H]1C(=O)N2CCCc3nc(NCc4cnn(CCCC(F)(F)F)c4)nc(c32)N1C` [93 (W223)], the IC50 is over 10 µM in experiment [1], over 10 µM in experiment [3], 0.089 µM in experiment [4] and 0.079 µM in experiment [6].
Regarding `CCN1c2nc(NCc3ccc(Oc4cnc(C(F)(F)F)nc4)nc3)nc3c2N(CCC3)C(=O)[C@@H]1C` [168 (W298)], the IC50 was 0.035 µM in experiment [5]; over 10 µM in experiment [1]; 0.026 µM in experiment [2]; 0.029 µM in experiment [4]; 0.011 µM in experiment [6]; 0.068 µM in experiment [7].
With `[2H]C([2H])([2H])N1c2nc(NCc3ccc(Oc4cnc(C(F)(F)F)nc4)nc3)nc3c2N(CCC3)C(=O)[C@@H]1CC(F)(F)F` [193 (W342)], the IC50 in experiment [5] is 0.0012 µM; in experiment [1], over 10 µM; in experiment [2], 0.004 µM; in experiment [4], 0.0014 µM; in experiment [6], under 0.0005 µM; in experiment [7] it was 0.024 µM.
As to `[2H]C([2H])([2H])N1c2nc(NCc3ccc(Oc4ccc(C(F)(F)F)nc4)nc3)nc3c2N(CCC3)C(=O)[C@@H]1CC(F)(F)F` [196 (W344)], the IC50 in experiment [5] was 0.0012 µM; in experiment [1], over 10 µM; in experiment [2] it was 0.007 µM; in experiment [4], 0.0014 µM; in experiment [6] it was under 0.0005 µM; in experiment [7] it was 0.054 µM.
For the compound `CC[C@H]1C(=O)N2CCCc3nc(NCc4ccc(Cn5ccc(C(F)(F)F)n5)nc4)nc(c32)N1C` [146 (W273)], the IC50 in experiment [5] is 0.081 µM; in experiment [1], over 10 µM; in experiment [2] it was 0.034 µM; in experiment [4], 0.031 µM; in experiment [6], 0.018 µM; in experiment [7], 0.087 µM.
